Values of other authors in US11766411B2, “Use of cannabinoids in the treatment of epilepsy” (GW Research Limited, priority 2014, dated 2023).

Conditions: Consroe et al., 1977; cited from earlier work

CCCCCc1cc(O)c2c(c1)OC(C)(C)[C@@H]1CCC(C)=C[C@@H]21 [THC, Tetrahydrocannabinol]
effect on convulsions: pro-convulsant
